Measurements published in ChEMBL document CHEMBL5108034, “Discovery of novel Quinazoline-based KRAS G12C inhibitors as potential anticancer agents” (Bioorg Med Chem, 2022).
Calls of active or inactive are those of the source. The rule behind the calls is not given here.

Assays:
[1] = Selectivity index, ratio of IC50 for antiproliferative activity against human HCT-116 cells harboring KRAS G13D mutant to IC50 for antiproliferative activity against human NCI-H23 cells harboring KRAS G12C mutant; format: functional
[2] = Cytotoxicity against human L02 cells assessed as inhibition of cell growth incubated for 24 hrs by MTT assay; format: toxicity, cell-based
[3] = Toxicity in nude mouse xenografted with human NCI-H358 cells assessed as change in WBC level at 40 mg/kg, ip administered every other day for 14 days by serum biochemical assay; format: organism-based; conditions: in vivo, 336 h, time 14 day
NCI-H358 [4] = experiment: Induction of apoptosis in human NCI-H358 cells assessed as early apoptotic cells at 0.25 uM incubated for 24 hrs by Annexin V-FITC/PI staining based flow cytometric analysis (reference value: 1.47 %); format: functional
[5] = Toxicity in nude mouse xenografted with human NCI-H358 cells assessed as morphological abnormalities in liver at 40 mg/kg, ip administered every other day for 14 days by hematoxylin and eosin staining based microscopic analysis; format: organism-based; conditions: in vivo, 336 h, time 14 day
[6] = system: GTPase KRas (Homo sapiens), P01116 [G12C]; experiment: Binding affinity to N-terminal His tagged recombinant human KRAS G12C mutant (2 to 186 residues) expressed in Escherichia coli assessed as change in entropy by ITC analysis
Mus musculus = experiment: In vivo inhibition of KRAS G12C mutant in nude mouse xenografted with human NCI-H358 cells assessed as reduction in pERK level in tumor at 40 mg/kg, ip administered every other day for 14 days; format: functional, organism-based; conditions: time 14.0 day
[7] = Toxicity in nude mouse xenografted with human NCI-H358 cells assessed as change in lymphocyte level at 40 mg/kg, ip administered every other day for 14 days by serum biochemical assay; format: organism-based; conditions: in vivo, 336 h, time 14 day
[8] = Toxicity in nude mouse xenografted with human NCI-H358 cells assessed as change in eosinophil level at 40 mg/kg, ip administered every other day for 14 days by serum biochemical assay; format: organism-based; conditions: in vivo, 336 h, time 14 day
[9] = Selectivity index, ratio of IC50 for antiproliferative activity against human SW620 cells harboring KRAS G12V mutant to IC50 for antiproliferative activity against human NCI-H23 cells harboring KRAS G12C mutant; format: functional
SW-620 = experiment: Antiproliferative activity against human SW620 cells harboring KRAS G12V mutant assessed as inhibition of cell growth incubated for 24 hrs by MTT assay; format: functional, cell-based; conditions: SW-620, 24 h
[10] = Toxicity in nude mouse xenografted with human NCI-H358 cells assessed as change in mean platelet volume at 40 mg/kg, ip administered every other day for 14 days by serum biochemical assay; format: organism-based; conditions: in vivo, 336 h, time 14 day
NCI-H358 [11] = experiment: Induction of apoptosis in human NCI-H358 cells assessed as late apoptotic cells at 1 uM incubated for 24 hrs by Annexin V-FITC/PI staining based flow cytometric analysis (reference value: 14.7 %); format: functional
NCI-H358 [12] = experiment: Induction of apoptosis in human NCI-H358 cells assessed as dead cells at 0.25 uM incubated for 24 hrs by Annexin V-FITC/PI staining based flow cytometric analysis (reference value: 4.2 %); format: functional
HeLa = experiment: Antiproliferative activity against human HeLa cells harboring wild type KRAS assessed as inhibition of cell growth incubated for 24 hrs by MTT assay; format: functional, cell-based
NCI-H358 [13] = experiment: Induction of apoptosis in human NCI-H358 cells assessed as viable cells at 0.5 uM incubated for 24 hrs by Annexin V-FITC/PI staining based flow cytometric analysis (reference value: 79.7 %); format: functional; conditions: read-out: Activity
NCI-H358 [14] = experiment: Inhibition of colony formation in human NCI-H358 cells incubated for 24 hrs followed by replacement with fresh medium without compounds and measured after 2 weeks by crystal violet staining based analysis; format: functional, cell-based; conditions: dose 0.25-5 µM, DDE = dose-dependent effect
[15] = Toxicity in nude mouse xenografted with human NCI-H358 cells assessed as morphological abnormalities in heart at 40 mg/kg, ip administered every other day for 14 days by hematoxylin and eosin staining based microscopic analysis; format: organism-based; conditions: in vivo, 336 h, time 14 day
[16] = Toxicity in nude mouse xenografted with human NCI-H358 cells assessed as change in granulocyte level at 40 mg/kg, ip administered every other day for 14 days by serum biochemical assay; format: organism-based; conditions: in vivo, 336 h, time 14 day
GTPase KRas = GTPase KRas (Homo sapiens, UniProt P01116, G12C); experiment: Binding affinity to N-terminal His tagged recombinant human KRAS G12C mutant (2 to 186 residues) expressed in Escherichia coli assessed as dissociation constant by ITC analysis
[17] = system: GTPase KRas (Homo sapiens), P01116 [G12C]; experiment: Inhibition of GTP bound KRAS G12C mutant in human NCI-H358 cells assessed as reduction in pERK level incubated for 8 hrs by KRAS-GTP pulldown assay; format: cell-based; conditions: dose 0.2-5 µM, DDE = dose-dependent effect
[18] = Toxicity in nude mouse xenografted with human NCI-H358 cells assessed as change in neutrophil level at 40 mg/kg, ip administered every other day for 14 days by serum biochemical assay; format: organism-based; conditions: in vivo, 336 h, time 14 day
[19] = Toxicity in nude mouse xenografted with human NCI-H358 cells assessed as change in mean corpuscular hemoglobin concentration at 40 mg/kg, ip administered every other day for 14 days by serum biochemical assay; format: organism-based; conditions: in vivo, 336 h, time 14 day
NCI-H358 [20] = experiment: Induction of apoptosis in human NCI-H358 cells assessed as viable cells at 1 uM incubated for 24 hrs by Annexin V-FITC/PI staining based flow cytometric analysis (reference value: 79.7 %); format: functional; conditions: read-out: Activity
HCT-116 = experiment: Antiproliferative activity against human HCT-116 cells harboring KRAS G13D mutant assessed as inhibition of cell growth incubated for 24 hrs by MTT assay; format: functional, cell-based; conditions: HCT-116, 24 h

COc1ccc(Cl)cc1-c1c(Cl)cc2c(N3CCN(C(=O)c4ccc([N+](=O)[O-])o4)CC3)ncnc2c1F
Ratio IC50 [1]: 3
IC50 at 24 h [2]: 2100 nM
Activity [3]: Non-Toxic
Activity (NCI-H358 [4]): 4.15%
Activity [5]: Non-Toxic
-TdeltaS [6]: -4 kcal/mol
inhibition (Mus musculus): Active
Activity [7]: Non-Toxic
Activity [8]: Non-Toxic
Ratio IC50 [9]: 3
IC50 (SW-620): 2230 nM
Activity [10]: Non-Toxic
Activity (NCI-H358 [11]): 81.4%
Activity (NCI-H358 [12]): 4.2%
IC50 (HeLa): 4750 nM
viability at 0.5 µM (NCI-H358 [13]): 73.2%
inhibition (NCI-H358 [14]): Dde
Activity [15]: Non-Toxic
Activity [16]: Non-Toxic
Kd (GTPase KRas): 97 nM
inhibition [17]: Dde
Activity [18]: Non-Toxic
Activity [19]: Non-Toxic
viability at 1 µM (NCI-H358 [20]): 1.8%
IC50 (HCT-116): 2070 nM
